This is an account of results in patent US7847108B2, “Oxathiin carboxamides” (Bayer CropScience AG, priority 2003, dated 2010).

The subject of data set [1] is Botrytis cinerea. Nature of the data set: Botrytis test (bean)/protective. Format: in vivo. The settings on record: 48 h, bean plants, protective, application rate 500 g/ha, evaluation 2 days after inoculation, read-out: % efficacy. The protocol:
Botrytis Test (Bean)/Protective
• Solvents:24.5 parts by weight of acetone 24.5 parts by weight of dimethylacetamide • Emulsifier: 1 part by weight of alkylaryl polyglycol ether
(§1) To produce a suitable preparation of active compound, 1 part by weight of active compound is mixed with the stated amounts of solvents and emulsifier, and the concentrate is diluted with water to the desired concentration.
To test for protective activity, young plants are sprayed with the preparation of active compound at the stated application rate. After the spray coating has dried on, 2 small pieces of agar colonized with Botrytis cinerea are placed onto each leaf. The inoculated plants are placed in a dark chamber at about 20° C. and 100% relative atmospheric humidity.
2 days after the inoculation, the size of the infected areas on the leaves is evaluated. 0% means an efficacy which corresponds to that of the control, whereas an efficacy of 100% means that no infection is observed.

The test system of data set [2] is Venturia inaequalis. The data set can be described thus: Venturia test (apple)/protective. The data set is classed as in vivo. The settings on record: 240 h, apple plants, protective, application rate 100 g/ha, evaluation 10 days after inoculation, read-out: % efficacy. The protocol:
Venturia Test (Apple)/Protective
• Solvents: 24.5 parts by weight of acetone 24.5 parts by weight of dimethylacetamide • Emulsifier: 1 part by weight of alkylaryl polyglycol ether
as §1
To test for protective activity, young plants are sprayed with the preparation of active compound at the stated application rate. After the spray coating has dried on, the plants are inoculated with an aqueous conidia suspension of the apple scab pathogen Venturia inaequalis and then remain in an incubation cabin at about 20° C. and 100% relative atmospheric humidity for 1 day.
The plants are then placed in a greenhouse at about 21° C. and a relative atmospheric humidity of about 90%.
Evaluation is carried out 10 days after the inoculation. 0% means an efficacy which corresponds to that of the control, whereas an efficacy of 100% means that no infection is observed.

The test system of data set [3] is Alternaria solani. Nature of the data set: Alternaria test (tomato)/protective. The data set is classed as in vivo. The settings on record: tomato plants, protective, application rate 750 g/ha, evaluation 7 days after inoculation. The protocol:
Alternaria Test (Tomato)/Protective
• Solvent: 49 parts by weight of N,N-dimethylformamide • Emulsifier: 1 part by weight of alkylaryl polyglycol ether
To produce a suitable preparation of active compound, 1 part by weight of active compound is mixed with the stated amounts of solvent and emulsifier, and the concentrate is diluted with water to the desired concentration.
To test for protective activity, young tomato plants are sprayed with the preparation of active compound at the stated application rate. 1 day after the treatment, the plants are inoculated with a spore suspension of Alternaria solani and are then allowed to stand at 100% relative humidity and 20° C. for 24 h. The plants are then allowed to stand at 96% relative atmospheric humidity and a temperature of 20° C.
Evaluation is carried out 7 days after the inoculation. 0% means an efficacy which corresponds to that of the control, whereas an efficacy of 100% means that no infection is observed.

Data set [4] can be described thus: logP determination by HPLC on reversed-phase column (EEC Directive 79/831 Annex V.A8). The data set is classed as physicochemical. The settings on record: for chromatographic logP: reversed-phase C18 HPLC column. As to the method: The given logP values were determined in accordance with EEC Directive 79/831 Annex V.A8 by HPLC (High Performance Liquid Chromatography) on a reversed-phase column (C 18). Temperature: 43° C. […] Calibration was carried out using unbranched alkan-2-ones (having 3 to 16 carbon atoms) with known logP values (determination of the logP values by the retention times using linear interpolation between two successive alkanones).

The subject of data set [5] is Puccinia recondite. Nature of the data set: Puccinia test (wheat)/protective. The settings on record: 240 h, wheat plants, protective, application rate 500 g/ha, evaluation 10 days after inoculation, solvent/emulsifier parts 25/0.5, 25/0.6 or 50/1.0, read-out: % efficacy. Format: in vivo. As to the method: Puccinia Test (Wheat)/Protective • Solvent: N,N-dimethylacetamide • Emulsifier: alkylaryl polyglycol ether […] To test for protective activity, young plants are sprayed with the preparation of active compound at the stated application rate. After the spray coating has dried on, the plants are sprayed with a conidia suspension of Puccinia recondite. […] The plants are then placed in a greenhouse at a temperature of about 20° C. and a relative atmospheric humidity of 80% to promote the development of rust pustules.

Setting [6] is: pH 2.3, C18, 43° C., read-out: logP (pH 2.3).
Where [7] appears, read: Table 1 logP / m.p., C18, 43° C., acidic range (pH 2.3), read-out: logP.
Setting [8] is: Table 1 logP / m.p., C18, 43° C., acidic range (pH 2.3).

Each structure is given as a SMILES string. Where two headings read alike, the source gives them in different places.

Consider `CC1CC(C)(C)c2cccc(NC(=O)C3=C(C(F)(F)F)OCCS3)c21` (centres unmarked) [Example 12], for which the pest or weed control at 500 g/ha in data set [1] was 97%. Further, the pest or weed control at 100 g/ha in data set [2] came out at 100%.
As to `CC(CC(C)(C)C)c1ccccc1NC(=O)C1=C(C(F)(F)F)OCCS1` (centres unmarked) [Example 2, N-[2-(1,3,3-trimethylbutyl)phenyl]-6-trifluoromethyl-2,3-dihydro-1,4-oxathiin-5-carboxamide], the pest or weed control at 500 g/ha in data set [1] and in data set [5] was 100% in each case. The “% efficacy” value in data set [3] is on record as 100%. Moreover, in data set [2], the pest or weed control at 100 g/ha is 98%. For the same molecule, the chromatographic logP in data set [4] (setting [6]) came to 4.18.
With `O=C(Nc1ccccc1-c1ccc(Cl)cc1Cl)C1=C(C(F)(F)F)OCCS1` [Example 79], the chromatographic logP in data set [4] (setting [7]) stood at 3.82. For the same molecule, the pest or weed control at 500 g/ha in data set [5] was found to be 86%.
Consider `CC(CC1CCCC1)c1ccccc1NC(=O)C1=C(C(F)(F)F)OCCS1` (centres unmarked) [Example 37], for which the chromatographic logP in data set [4] (setting [7]) stood at 4.38. Further, the pest or weed control at 500 g/ha in data set [5] is 93%.
For `Cc1cc(Cl)ccc1-c1ccccc1NC(=O)C1=C(C(F)(F)F)OCCS1` [Example 26], the “% efficacy” value in data set [3] is 100%. Also, in data set [4] (setting [7]), the chromatographic logP worked out at 4.
Consider `O=C(Nc1ccc(F)cc1-c1ccc(Cl)c(Cl)c1)C1=C(C(F)(F)F)OCCS1` [Example 17], for which the results for the pest or weed control at 500 g/ha in data set [1] and in data set [5] were 96% and 86%, respectively. For the same molecule, the pest or weed control at 100 g/ha in data set [2] turned out to be 100%. Further, in data set [4] (setting [7]), the chromatographic logP was 3.95.
For `CC(C)CC(C)c1ccccc1NC(=O)C1=C(C(F)(F)F)OCCS1` (centres unmarked) [Example 18], in that order: 100%, 100%, 100% and 3.92.
For the molecule `CC(C)O/N=C/c1ccc(-c2ccccc2NC(=O)C2=C(C(F)(F)F)OCCS2)cc1` [Example 21], the pest or weed control at 500 g/ha in data set [1] was 100%. The “% efficacy” value in data set [3] worked out at 100%. Moreover, the pest or weed control at 100 g/ha in data set [2] turned out to be 100%. Moreover, in data set [4] (setting [7]), the chromatographic logP came to 4.22.
Turning to `O=C(Nc1ccccc1-c1ccc(Br)c(F)c1)C1=C(C(F)(F)F)OCCS1` [Example 57], in data set [4] (setting [7]), the chromatographic logP amounted to 3.69. Moreover, the pest or weed control at 500 g/ha in data set [5] is 88%.
For `Cc1ccc(-c2ccccc2NC(=O)C2=C(C(F)(F)F)OCCS2)cc1Cl` [Example 38], the chromatographic logP in data set [4] (setting [7]) is 3.89. Further, in data set [5], the pest or weed control at 500 g/ha stood at 88%.
As to `O=C(Nc1ccccc1-c1ccc(Br)cc1)C1=C(C(F)(F)F)OCCS1` [Example 27], in data set [4] (setting [7]), the chromatographic logP was determined as 3.7. Besides, the pest or weed control at 500 g/ha in data set [5] was 88%.
For `CC(C)CC(C)c1ccccc1NC(=O)C1=C(C(F)F)OCCS1` (centres unmarked) [Example 82], in that order: 4.03 and 100%.
For `O=C(Nc1ccccc1-c1ccc(C(F)(F)F)c(F)c1)C1=C(C(F)(F)F)OCCS1` [Example 29], in that order: 3.75 and 94%.
Take `O=C(Nc1ccccc1-c1ccc(Cl)c(F)c1)C1=C(C(F)(F)F)OCCS1` [Example 23]: in data set [4] (setting [7]), the chromatographic logP was found to be 3.62. The pest or weed control at 500 g/ha in data set [5] worked out at 89%.
Consider `CCCO/N=C/c1ccc(-c2ccccc2NC(=O)C2=C(C(F)(F)F)OCCS2)cc1` [Example 22], for which, in data set [1], the pest or weed control at 500 g/ha came to 100%. Further, the pest or weed control at 100 g/ha in data set [2] came to 100%. For the same molecule, in data set [4] (setting [7]), the chromatographic logP turned out to be 4.25.
As to `O=C(Nc1ccccc1-c1ccc(C(F)(F)F)cc1)C1=C(C(F)(F)F)OCCS1` [Example 20], the pest or weed control at 500 g/ha in data set [1] worked out at 100%. The pest or weed control at 100 g/ha in data set [2] stood at 88%. Besides, the chromatographic logP in data set [4] (setting [7]) was found to be 3.73.
With `CC/C(=N\OC)c1ccc(-c2ccccc2NC(=O)C2=C(C(F)(F)F)OCCS2)cc1` [Example 56], the chromatographic logP in data set [4] (setting [7]) stood at 4.08. Besides, the pest or weed control at 500 g/ha in data set [5] turned out to be 88%.
For `Cc1cc(-c2ccccc2NC(=O)C2=C(C(F)(F)F)OCCS2)ccc1F` [Example 35], in that order: 3.65 and 88%.
Take `O=C(Nc1ccccc1-c1ccc(Cl)c(Cl)c1)C1=C(C(F)(F)F)OCCS1` [Example 19]: the pest or weed control at 500 g/ha in data set [1] and in data set [5] was 100% in each case. The “% efficacy” value in data set [3] was 100%. Also, the pest or weed control at 100 g/ha in data set [2] worked out at 100%. In data set [4] (setting [7]), the chromatographic logP is 3.91.
In the case of `O=C(Nc1ccccc1-c1ccc(F)c(Cl)c1)C1=C(C(F)(F)F)OCCS1` [Example 24], the chromatographic logP in data set [4] (setting [7]) was found to be 3.6. Besides, the pest or weed control at 500 g/ha in data set [5] stood at 100%.
Regarding `CO/N=C/c1ccc(-c2ccccc2NC(=O)C2=C(C(F)(F)F)OCCS2)cc1` [Example 1, N-[4′-(methoxyiminomethyl)-biphenyl-2-yl]-6-trifluoromethyl-2,3-dihydro-1,4-oxathiin-5-carboxamide], the chromatographic logP in data set [4] (setting [6]) was found to be 3.51.
Consider `CC(CC(C)(C)C)c1ccccc1NC(=O)C1=C(C(F)F)OCCS1` (centres unmarked) [Example 81], for which the logP (usually the decadic logarithm of the partition coefficient of the neutral form, usually between octanol and water) in data set [4] (setting [8]) amounted to 4.29.
On the same count and under the same terms, for `CC(C)(C)CCc1ccccc1NC(=O)C1=C(C(F)(F)F)OCCS1` [Example 103] the value was 3.98.
As for `CCCON=Cc1ccc(-c2ccccc2NC(=O)C2=C(C(F)(F)F)OC(C)CS2)cc1F` (centres unmarked) [Example 68], in data set [4] (setting [8]), the logP turned out to be 4.77.
The same measure, in the same setting: the figure for `CC1CSC(C(=O)Nc2ccccc2-c2ccc(Cl)c(Cl)c2)=C(C(F)(F)F)O1` (centres unmarked) [Example 65] is 4.27.
